Assay results as given in patent US20230337677A1, “ARYL AND PYRIDYL AMIDE PESTICIDES AND COMPOSITIONS THEREOF” (University of Florida Research Foundation, Incorporated, priority 2019, published 2023).
Where two headings read alike, the source gives them in different places.

Assays:
[1] = tested on: Anopheles gambiae G3 sensitive strain; test: Topical toxicity (24 hour mortality), An. gambiae G3; type: in vivo; conditions: topical application, 24 h mortality, female adults, susceptible strain G3
Method in brief: (§1)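 Females aged 3–6 days received 200 nL of compound in ethanol topically on the thorax, 10 per concentration per replicate, and were kept at 28° C with sugar water.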

[2] = tested on: Aedes aegypti strain Orlando (sensitive); test: Topical toxicity (24 hour mortality), Ae. aegypti Orlando; type: in vivo; conditions: topical application, 24 h mortality, female adults, susceptible Orlando strain
Method in brief: as §1

[3] = tested on: Anopheles gambiae Akron kdr (Akdr) strain, resistant to pyrethroids; test: Topical toxicity (24 hour mortality), An. gambiae Akdr; type: in vivo; conditions: for An. gambiae RR (resistance ratio): 24 h LD50 resistant strain (AKDR)/24 h LD50 susceptible strain (G3); for An. gambiae AKDR LD50: topical application, 24 h mortality, female adults, pyrethroid-resistant Akdr strain
Method in brief: as §1

[4] = tested on: Aedes aegypti and Anopheles gambiae female adults; test: Analysis of topical toxicity (statements in words, species not given); type: in vivo; conditions: structure-activity analysis of Table 4
Protocol: The Aedes aegypti strains Orlando (sensitive) as well as the Puerto Rico (PR, resistant to permethrin) were used. The Anopheles gambiae (G3 sensitive strain, as well as Akron kdr (Akdr) strain, resistant to pyrethroids were also assessed. The larvae were provided by the USDA, Gainesville Fl, and raised in a pan with tap water maintained at 28° C. Larvae were fed a ground liver and yeast mixture, and pupae were placed in emergence cages. Adults were held at 28° C. and provided with cotton balls soaked in 10% sugar water for rearing and for all bioassays.
Female adults from 3 to 6 days were used for the experiments. The drug was dissolved in ethanol and then applied with a micro-applicator on the thorax, between the legs: 200 nL of drug per female mosquito, with different concentrations of the drug; 10 mosquitos were treated together per concentration per replicate, and put together in a small container with free access to sweet water. Mortality, i.e. no visible movement, was assessed 24 hours after treatment. Every compound was assessed on at least 3 different cohorts of mosquitoes, and the LD50 values and slopes were determined with Probit analysis, corrected with Abbott's formula. […]

[5] = tested on: Aedes aegypti mosquitoes, pyrethroid-resistant Puerto Rico strain; test: Vapor repellency glass tube assay (1 h), resistant strain; type: in vivo; conditions: with resistance ratio (PR)
[6] = tested on: Aedes aegypti mosquitoes, insecticide-susceptible Orlando strain; type: in vivo; conditions: for 1 h Repellency EC50, μg/cm^2: (OR); for 1 h % Repellency, 100 μg/cm^2: screened at 100 μg/cm^2, strain not given; for 1h % repellency: Screened at μg/cm^2
Method in brief: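 Sixteen female mosquitoes per glass tube facing netting-shielded filter paper treated with acetone solutions (30-0.01 μg/ml; screen at 100 μg/cm^2), no contact. Proportion on treated side scored up to 60 min, then flight-out checked 30 min; mortality after 24 hr constant exposure.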

[7] = tested on: Aedes aegypti mosquitoes, insecticide-susceptible Orlando strain
[8] = tested on: Aedes aegypti mosquitoes, insecticide-susceptible Orlando strain; test: whole plant or invertebrate; conditions: 24 h, read-out: 24 h % Mortality, 100 μg/cm^2
[9] = Table 3B; Hammett substitution constant based on the ionization of benzoic acids; cited from earlier work
[10] = Mammalian toxicity, oral gavage; type: in vivo; conditions: ICR, in vivo; Table 3A; oral gavage; preliminary mouse screening
Protocol: Mice ([…] strain ICR, body weight between 20 and 26 g, 35 days old+/−4 days), were force fed with compounds solubilized in olive oil to a volume of 10 μL per gram of mouse via 1 mL disposable syringes attached to 22 gauge metal canulas directly in the stomach following the Institutional Animal Care and Use Committee (IACUC) standard procedure. One hour after gavage, mice were returned to food and water access ad libitum. Dose tested ranged from 60 up to 600 mg/kg of mice, following the method recommended by the US EPA to reduce the number of mice used to determine the LD50 doses. Mice were monitored after drug administration during the first hour, and then every 4 hours up to 24 hours. The surviving mice were humanely sacrificed. Any mice displaying a high state of pain/distress would also be considered as not surviving the treatment and were sacrificed before the end of the investigation. The […] was determined using the AOT425StatPgm software; the study was registered and approved by IACUC under number 201810416.

**Q.** For `CC(C)(C)OC(=O)Nc1cc(Cl)nc(Cl)c1` [GMR033], which “An. gambiae G3 LD50” value [1] is on record?
**A.** The value was 21.4 ng/mg.

**Q.** And the “Ae. aegypti OR LD50” value [2]?
**A.** The value was 1199 ng/mg.

**Q.** What about the “An. gambiae RR (resistance ratio)” value [3] of the same compound?
**A.** The value was 2.2.

**Q.** And the “An. gambiae AKDR LD50” value [3]?
**A.** The value was 46.7 ng/mg.

**Q.** What about the “topical toxicity, statement in words (Example 10)” value (“topical toxicity, statement” below) [4] of the same compound?
**A.** The value was “promising activity”.

**Q.** Which “An. gambiae G3 LD50” value [1] does the source give for `O=C(Nc1cc(Cl)nc(Cl)c1)c1c(F)c(F)c(F)c(F)c1F` [GMR089] here?
**A.** The value was over 100 ng/mg.

**Q.** And the “Ae. aegypti OR LD50” value [2]?
**A.** Its value is over 6000 ng/mg.

**Q.** And the “An. gambiae AKDR LD50” value [3]?
**A.** The value was over 100 ng/mg.

**Q.** And the “topical toxicity, statement” value [4]?
**A.** Its value is “reduction in toxicity”.

**Q.** With `C#C[C@@H]1[C@@H](C(=O)Nc2cc(Cl)nc(Cl)c2)C1(C)C` [GMR086] as the compound, how does the “An. gambiae G3 LD50” value [1] read?
**A.** Its value is over 50 ng/mg.

**Q.** What about the “Ae. aegypti OR LD50” value [2] of the same compound?
**A.** Its value is over 6000 ng/mg.

**Q.** What about the “An. gambiae AKDR LD50” value [3] of the same compound?
**A.** The value was over 50 ng/mg.

**Q.** What about the “topical toxicity, statement” value [4] of the same compound?
**A.** The value was “reduced toxicity”.

**Q.** With `CCN(CC)C(=O)c1cccc(C)c1` [DEET, N,N-diethyl-m-toluamide, reference compound] as the compound, how does the “1 h Repellency EC50, μg/cm^2 (RR)” value [5] read?
**A.** Its value is 79 μg/cm^2.

**Q.** And the “1 h Repellency EC50, μg/cm^2” value [6]?
**A.** Its value is 35 μg/cm^2.

**Q.** What about the “response in glass tube assay (FIG. 1)” value ([6]; representative response, in words) of the same compound?
**A.** Its value is “Mosquitoes moved away from the DEET treated side”.

**Q.** What does the source list for `CC(=O)Nc1ccccc1C(F)(F)F` [MTFI-1-4A]?
**A.** 1 h Repellency EC50, μg/cm^2 (RR) [5]: 81 μg/cm^2; 1 h Repellency EC50, μg/cm^2 [6]: 26 μg/cm^2; 1 h % Repellency, 100 μg/cm^2 [6]: 78%

**Q.** What does the source list for `CCCCCC(=O)Nc1cc(Cl)nc(Cl)c1` [GMR054]?
**A.** An. gambiae G3 LD50 [1]: >100 ng/mg; Ae. aegypti OR LD50 [2]: >3000 ng/mg; An. gambiae AKDR LD50 [3]: >100 ng/mg; topical toxicity, statement in words (Example 10) [4]: reduced activity

**Q.** What does the source list for `CCOC(=O)Nc1cc(Cl)nc(Cl)c1` [GMR032]?
**A.** An. gambiae G3 LD50 [1]: 18.3 ng/mg; Ae. aegypti OR LD50 [2]: 892 ng/mg; An. gambiae RR (resistance ratio) [3]: 3.6; An. gambiae AKDR LD50 [3]: 66.0 ng/mg; topical toxicity, statement in words (Example 10) [4]: promising activity

**Q.** Which “An. gambiae G3 LD50” value [1] does the source give for `O=C(Nc1cc(Cl)nc(C(F)(F)F)c1)C(F)(C(F)(F)F)C(F)(F)F` [GMR092, N-(2-chloro-6-(trifluoromethyl)pyridin-4-yl)-2,3,3,3-tetrafluoro-2-(trifluoromethyl)propanamide] here?
**A.** The value was 9.60 ng/mg.

**Q.** And the “Ae. aegypti OR LD50” value [2]?
**A.** The value was 8.8 ng/mg.

**Q.** What about the “An. gambiae RR (resistance ratio)” value [3] of the same compound?
**A.** Its value is 0.3.

**Q.** What about the “An. gambiae AKDR LD50” value [3] of the same compound?
**A.** The value was 3.30 ng/mg.

**Q.** What about the “topical toxicity, statement” value [4] of the same compound?
**A.** Its value is “retained high mortality”.

**Q.** What does the source list for `C/C=C\C[C@H]1C(=O)CC[C@@H]1CC(=O)Nc1cc(F)c(F)c(F)c1` [GMR098]?
**A.** An. gambiae G3 LD50 [1]: >1000 ng/mg; Ae. aegypti OR LD50 [2]: >6000 ng/mg; 24 h % Mortality, 100 μg/cm^2 ([7]; in vivo): 0%; An. gambiae AKDR LD50 [3]: >1000 ng/mg; 1 h % Repellency, 100 μg/cm^2 [6]: 18%; topical toxicity, statement in words (Example 10) [4]: reduced toxicity

**Q.** What does the source list for `O=C(NC(=O)c1cc(Cl)nc(Cl)c1)c1cc(Cl)nc(Cl)c1` [GMR117]?
**A.** Ae. aegypti OR LD50 [2]: >1500 ng/mg; 1 h % Repellency, 100 μg/cm^2 [6]: 62%; vapor repellency / mortality, statement in words (Example 8) ([6]; structure-activity analysis of Table 2): some repellency and mortality; mortality at 100 µg/cm2 [8]: 100%; topical toxicity, statement in words (Example 10) [4]: reduced activity

**Q.** With `O=C(CCl)Nc1cccc(F)c1` [compound 3] as the compound, how does the σmeta [9] read?
**A.** The σmeta was 0.337.

**Q.** And the 1h % repellency ([6]; Table 3B)?
**A.** The 1h % repellency was 6%.

**Q.** For `O=C(Nc1cc(F)c(F)c(F)c1)C(F)(F)C(F)(F)C(F)(F)F` [compound 52], which “24 h LC50, μg/cm^2” value ([7]; Table 3A) is on record?
**A.** Its value is 13.30 μg/cm^2.

**Q.** What about the 24h % mortality ([7]; Table 3A, Screened at μg/cm^2) of the same compound?
**A.** The 24h % mortality was 100%.

**Q.** What about the LD50 at 24 h [10] of the same compound?
**A.** Its LD50 at 24 h is over 2000 mg/kg.

**Q.** And the “1h EC50 (μg/cm^2)” value ([6]; Table 3A)?
**A.** Its value is 2.92 μg/cm^2.

**Q.** And the 1h % repellency ([6]; Table 3A)?
**A.** Its 1h % repellency is 68%.
